Toxic doses and inconclusive results are not listed. Cut-off read from the data, not from the text of the source: active = T/C of 150% or more; inactive = T/C below 125%.
Test system: L1210 leukemia ip in BDF1 mice, survival T/C
Test: NCI In Vivo Anticancer Drug Screen. Data for tumor model L1210 Leukemia (intraperitoneal) in B6D2F1 (BDF1) mice
Conditions: endpoint: mean survival time, higher = longer survival
Outline: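 Transplanted-tumor mice were given test agent; controls received vehicle only. Survival readings from the two groups were divided (treated over control).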

[1] = dose: 100.0 mg/kg/injection, schedule: Q01DX009 (ip), vehicle: Klucel (hydroxypropylcellulose) (HPC)
[2] = dose: 200.0 mg/kg/injection, schedule: Q01DX009 (ip), vehicle: Klucel (hydroxypropylcellulose) (HPC)
[3] = dose: 400.0 mg/kg/injection, schedule: Q01DX009 (ip), vehicle: Klucel (hydroxypropylcellulose) (HPC)
[4] = dose: 100.0 mg/kg/injection, schedule: Q01DX009 (ip), vehicle: other
[5] = dose: 200.0 mg/kg/injection, schedule: Q01DX009 (ip), vehicle: other
[6] = dose: 400.0 mg/kg/injection, schedule: Q01DX009 (ip), vehicle: other
[7] = dose: 100.0 mg/kg/injection, schedule: Q01DX001 (ip), vehicle: saline
[8] = dose: 200.0 mg/kg/injection, schedule: Q01DX001 (ip), vehicle: saline
[9] = dose: 400.0 mg/kg/injection, schedule: Q01DX001 (ip), vehicle: saline

Measured: T/C

CCS(=O)(=O)C(Br)CBr (centres undefined)
inactive: dose: 25.0 mg/kg/injection, schedule: Q01DX009 (ip), vehicle: Klucel (hydroxypropylcellulose) (HPC) 100 % of control | dose: 50.0 mg/kg/injection, schedule: Q01DX009 (ip), vehicle: Klucel (hydroxypropylcellulose) (HPC) 114 % of control | [1] 105 % of control | dose: 100.0 mg/kg/injection, schedule: Q04DX002 (ip), vehicle: Klucel (hydroxypropylcellulose) (HPC) 103 % of control | dose: 200.0 mg/kg/injection, schedule: Q04DX002 (ip), vehicle: Klucel (hydroxypropylcellulose) (HPC) 95 % of control

CC(C)(Oc1ccc(Cl)cc1Cl)C(=O)O
inactive: dose: 100.0 mg/kg/injection, schedule: Q01DX009 (ip), vehicle: gum acacia 90 % of control

CC(O)C(Cl)(Cl)Cl (centres undefined)
inactive: dose: 75.0 mg/kg/injection, schedule: Q01DX001 (ip), vehicle: carboxymethylcellulose (CMC) 100 % of control | dose: 150.0 mg/kg/injection, schedule: Q01DX001 (ip), vehicle: carboxymethylcellulose (CMC) 98 % of control | dose: 300.0 mg/kg/injection, schedule: Q01DX001 (ip), vehicle: carboxymethylcellulose (CMC) 106 % of control

CCc1c(N)nc(N)nc1Nc1ccc(C)cc1
inactive: dose: 6.0 mg/kg/injection, schedule: Q01DX Z (ip), vehicle: methylcellulose (MC) 95 % of control | dose: 12.0 mg/kg/injection, schedule: Q01DX Z (ip), vehicle: methylcellulose (MC) 97 % of control

COC(=O)c1ccccc1NC(=O)Nc1cccc(F)c1
inactive: [1] 95 % of control | [2] 101 % of control | [3] 113 % of control

Cc1ccccc1NC(=O)Oc1ccc2c(C)cc(=O)oc2c1
inactive: [1] 103 % of control | [2] 100 % of control

CCc1cccc(CC)c1NC(=O)Nc1ccccc1F
inactive: [4] 91 % of control | [5] 102 % of control | [6] 105 % of control

O=C(CCC[n+]1ccccc1)CC(O)(C(F)(F)F)C(F)(F)F
inactive: dose: 50.0 mg/kg/injection, schedule: Q01DX009 (ip), vehicle: saline 105 % of control | dose: 100.0 mg/kg/injection, schedule: Q01DX009 (ip), vehicle: saline 103 % of control | dose: 100.0 mg/kg/injection, schedule: Q04DX003 (ip), vehicle: saline 103 % of control | dose: 200.0 mg/kg/injection, schedule: Q01DX009 (ip), vehicle: saline 100 % of control | dose: 200.0 mg/kg/injection, schedule: Q04DX003 (ip), vehicle: saline 106 % of control

CS(=O)c1ccc(/C=C2/C=Cc3ccccc32)cc1 (centres undefined)
inactive: [1] 91 % of control | [2] 103 % of control | [3] 101 % of control

COC1OC(CCl)C(O)C(O)C1O (centres undefined)
inactive: dose: 100.0 mg/kg/injection, schedule: Q04DX002 (ip), vehicle: saline 98 % of control | dose: 100.0 mg/kg/injection, schedule: Q04DX003 (ip), vehicle: saline with Tween-80 93 % of control | dose: 200.0 mg/kg/injection, schedule: Q04DX002 (ip), vehicle: saline 103 % of control | dose: 200.0 mg/kg/injection, schedule: Q04DX003 (ip), vehicle: saline with Tween-80 100 % of control | dose: 400.0 mg/kg/injection, schedule: Q04DX002 (ip), vehicle: saline 106 % of control | dose: 400.0 mg/kg/injection, schedule: Q04DX003 (ip), vehicle: saline with Tween-80 89 % of control

CCCCCCCCCCCCCCCCC(C)(O)C#CC(C)(O)CCCCCCCCCCCCCCCC (centres undefined)
inactive: [4] 101 % of control | dose: 100.0 mg/kg/injection, schedule: Q04DX002 (ip), vehicle: saline with Tween-80 101 % of control | [5] 97 % of control | dose: 200.0 mg/kg/injection, schedule: Q04DX002 (ip), vehicle: saline with Tween-80 90 % of control | [6] 101 % of control | dose: 400.0 mg/kg/injection, schedule: Q04DX002 (ip), vehicle: saline with Tween-80 97 % of control

Cn1c(N)c(N=CC2CCCCC2)c(=O)n(C)c1=O
inactive: [7] 100 % of control | [8] 100 % of control | [9] 102 % of control

COc1ccc(C(=O)c2ccccc2C)cc1OC
inactive: [7] 95 % of control | [8] 97 % of control | [9] 91 % of control

O=C(Nc1ccccc1C(F)(F)F)c1ccc(Cl)cc1
inactive: [1] 97 % of control | dose: 100.0 mg/kg/injection, schedule: Q04DX003 (ip), vehicle: Klucel (hydroxypropylcellulose) (HPC) 93 % of control | [2] 103 % of control | dose: 200.0 mg/kg/injection, schedule: Q04DX003 (ip), vehicle: Klucel (hydroxypropylcellulose) (HPC) 99 % of control | [3] 94 % of control | dose: 400.0 mg/kg/injection, schedule: Q04DX003 (ip), vehicle: Klucel (hydroxypropylcellulose) (HPC) 88 % of control

CCCCCCCNC(C)(C)C(SS)c1ccc(Cl)cc1 (centres undefined)
inactive: dose: 100.0 mg/kg/injection, schedule: Q01DX009 (sc), vehicle: olive oil, sesame oil, peanut oil 102 % of control | dose: 200.0 mg/kg/injection, schedule: Q01DX009 (sc), vehicle: olive oil, sesame oil, peanut oil 100 % of control | dose: 400.0 mg/kg/injection, schedule: Q01DX009 (sc), vehicle: olive oil, sesame oil, peanut oil 101 % of control
